Positions count from the first letter of the chain named.
Key:
[1] = molecular target: T1, BA/F3-FLT3-ITD + D835Y cells (Homo sapiens, UniProt P36888, D835Y, cells depend on it, form not given); experiment: BA/F3-FLT3-ITD + D835Y cell proliferation assay (CellTiter-Glo); assay type: cell-based, murine; conditions: BaF3 cells, read-out: BaF3_FLT3_ITD/D835Y IC50
T1 sequence (P36888 1-993 D835Y): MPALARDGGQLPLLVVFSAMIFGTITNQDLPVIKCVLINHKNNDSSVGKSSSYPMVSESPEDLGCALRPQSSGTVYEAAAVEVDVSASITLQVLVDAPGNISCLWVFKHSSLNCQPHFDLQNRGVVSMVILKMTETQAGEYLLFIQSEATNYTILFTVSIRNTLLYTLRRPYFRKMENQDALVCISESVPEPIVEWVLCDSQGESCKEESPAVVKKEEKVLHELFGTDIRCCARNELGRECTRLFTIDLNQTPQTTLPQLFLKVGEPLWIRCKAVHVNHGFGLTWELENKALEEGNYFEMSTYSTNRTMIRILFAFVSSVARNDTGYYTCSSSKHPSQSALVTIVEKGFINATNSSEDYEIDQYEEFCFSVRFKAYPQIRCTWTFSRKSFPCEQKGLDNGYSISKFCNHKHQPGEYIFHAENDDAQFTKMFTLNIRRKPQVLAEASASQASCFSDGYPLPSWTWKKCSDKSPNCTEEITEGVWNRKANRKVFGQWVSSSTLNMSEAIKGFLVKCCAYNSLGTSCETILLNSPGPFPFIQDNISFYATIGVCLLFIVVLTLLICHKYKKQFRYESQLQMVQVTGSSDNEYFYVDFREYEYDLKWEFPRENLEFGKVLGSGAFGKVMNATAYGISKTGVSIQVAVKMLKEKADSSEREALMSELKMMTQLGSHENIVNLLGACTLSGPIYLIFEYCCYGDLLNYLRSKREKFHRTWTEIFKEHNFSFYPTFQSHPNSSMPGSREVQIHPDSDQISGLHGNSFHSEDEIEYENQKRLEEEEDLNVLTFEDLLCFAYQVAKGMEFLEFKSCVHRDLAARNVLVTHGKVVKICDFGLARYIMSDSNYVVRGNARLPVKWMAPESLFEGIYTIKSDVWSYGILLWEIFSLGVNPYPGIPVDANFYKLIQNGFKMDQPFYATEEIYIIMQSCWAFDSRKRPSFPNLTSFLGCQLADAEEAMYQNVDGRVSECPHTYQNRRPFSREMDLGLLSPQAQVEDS
Description: The FLT3 inhibitors may also be assessed using leukemia cell lines that express endogenous FLT3-ITD or cells that are engineered to express wild-type or mutant FLT3. The cells expressing endogenous FLT3 are dependent upon FLT3 catalytic activity for growth. For the engineered cells, murine BA/F3 cells were transfected with full-length FLT3 (either wild-type, or containing the ITD, D835Y, or F691L mutations, as noted). The parental BA/F3 cells are dependent upon Interleukin-3 (IL-3) for survival, and introduction of the FLT3 constructs renders these cells dependent upon FLT3 kinase activity when cultured in the absence of IL-3. Engineered BA/F3 cell growth assays can be performed in either the absence or presence of IL-3, to assess the compound inhibition of FLT3 or to detect the presence of off-target activity, respectively. Inhibitors of FLT3 kinase activity reduce or eliminate the FLT3 oncogenic signaling, resulting in reduced cell proliferation. This inhibition is measured as a function of compound concentration to assess IC50 values.
Cells were seeded at 1×10^4 cells per well of a 96 well cell culture plate in 50 μl of cell culture medium. Compounds were dissolved in DMSO, typically at a concentration of 5 mM and were serially diluted 1:3 for a total of eight points and added to the cells to final concentrations of 10, 3.3, 1.1, 0.37, 0.12, 0.041, 0.014 and 0.0046 μM in 100 μl cell culture medium (final concentration 0.2% DMSO). […] The cells were incubated at 37° C., 5% CO2 for three days. CellTiter-Glo Buffer (Promega Cell Viability Assay catalog #G7573) and substrate were equilibrated to room temperature, and enzyme/substrate Recombinant Firefly Luciferase/Beetle Luciferin was reconstituted. […] The plates were read on a Tecan M1000 using Luminescence protocol modified to read 0.1 s per well. The luminescence reading assesses the ATP content, which correlates directly with cell number such that the reading as a function of compound concentration was used to determine the IC50 value.

[2] = molecular target: T2, FLT3-ITD (Homo sapiens, UniProt P36888); experiment: FLT3-ITD biochemical kinase assay (AlphaScreen)
T2 construct: FLT3-ITD; Invitrogen #PV6190
T2 sequence (P36888 1-993): T1 sequence (P36888 1-993 D835Y) with Y835D
In short: (§1)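 First, recombinant FLT3 variant phosphorylates a biotinylated poly(Glu4-Tyr) peptide (30 nM) with ATP at 10 μM (D835Y) or 100 μM (ITD). Streptavidin donor beads are then added for 20 min at room temperature, followed by anti-phosphotyrosine PY20 acceptor beads for 60 min. Signal at 580 nm gives IC50.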

[3] = molecular target: c-Kit (Homo sapiens, UniProt P10721); experiment: c-Kit biochemical assay (per US 2007/0032519)
Chain of c-Kit (P10721 26-976): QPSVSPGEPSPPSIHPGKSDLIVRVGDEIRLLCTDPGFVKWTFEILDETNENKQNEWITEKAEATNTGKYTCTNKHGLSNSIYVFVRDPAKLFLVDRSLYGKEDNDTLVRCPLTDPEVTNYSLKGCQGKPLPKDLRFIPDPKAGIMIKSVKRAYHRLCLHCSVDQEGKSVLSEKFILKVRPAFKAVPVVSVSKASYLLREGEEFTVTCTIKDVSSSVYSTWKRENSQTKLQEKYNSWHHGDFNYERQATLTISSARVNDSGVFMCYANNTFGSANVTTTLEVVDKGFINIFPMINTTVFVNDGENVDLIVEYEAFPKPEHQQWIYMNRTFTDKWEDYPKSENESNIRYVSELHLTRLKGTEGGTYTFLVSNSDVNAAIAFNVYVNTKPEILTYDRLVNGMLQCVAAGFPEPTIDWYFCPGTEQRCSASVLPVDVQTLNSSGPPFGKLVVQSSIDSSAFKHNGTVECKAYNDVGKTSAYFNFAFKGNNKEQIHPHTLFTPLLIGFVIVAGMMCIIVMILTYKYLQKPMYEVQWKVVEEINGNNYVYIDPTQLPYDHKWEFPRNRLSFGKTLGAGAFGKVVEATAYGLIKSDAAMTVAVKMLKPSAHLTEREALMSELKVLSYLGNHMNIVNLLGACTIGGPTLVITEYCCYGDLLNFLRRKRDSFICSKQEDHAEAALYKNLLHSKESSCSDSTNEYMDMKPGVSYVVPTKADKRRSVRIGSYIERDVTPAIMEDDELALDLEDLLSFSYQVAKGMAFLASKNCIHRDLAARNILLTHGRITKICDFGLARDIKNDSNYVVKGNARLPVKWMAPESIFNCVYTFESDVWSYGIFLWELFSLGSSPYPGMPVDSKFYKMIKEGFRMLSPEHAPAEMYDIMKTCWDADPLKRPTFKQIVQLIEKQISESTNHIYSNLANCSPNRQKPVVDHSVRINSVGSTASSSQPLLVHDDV
In short: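 Biochemical kinase inhibition run per US 2007/0032519; values reported as binned IC50 ranges (0.0001–1 μM, 1–10 μM, 10–200 μM).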

[4] = molecular target: T3, FLT3-D835Y (Homo sapiens, UniProt P36888, D835Y); experiment: FLT3-D835Y biochemical kinase assay (AlphaScreen)
T3 construct: purchased Invitrogen PV3967
T3 sequence (P36888 27-993 D835Y): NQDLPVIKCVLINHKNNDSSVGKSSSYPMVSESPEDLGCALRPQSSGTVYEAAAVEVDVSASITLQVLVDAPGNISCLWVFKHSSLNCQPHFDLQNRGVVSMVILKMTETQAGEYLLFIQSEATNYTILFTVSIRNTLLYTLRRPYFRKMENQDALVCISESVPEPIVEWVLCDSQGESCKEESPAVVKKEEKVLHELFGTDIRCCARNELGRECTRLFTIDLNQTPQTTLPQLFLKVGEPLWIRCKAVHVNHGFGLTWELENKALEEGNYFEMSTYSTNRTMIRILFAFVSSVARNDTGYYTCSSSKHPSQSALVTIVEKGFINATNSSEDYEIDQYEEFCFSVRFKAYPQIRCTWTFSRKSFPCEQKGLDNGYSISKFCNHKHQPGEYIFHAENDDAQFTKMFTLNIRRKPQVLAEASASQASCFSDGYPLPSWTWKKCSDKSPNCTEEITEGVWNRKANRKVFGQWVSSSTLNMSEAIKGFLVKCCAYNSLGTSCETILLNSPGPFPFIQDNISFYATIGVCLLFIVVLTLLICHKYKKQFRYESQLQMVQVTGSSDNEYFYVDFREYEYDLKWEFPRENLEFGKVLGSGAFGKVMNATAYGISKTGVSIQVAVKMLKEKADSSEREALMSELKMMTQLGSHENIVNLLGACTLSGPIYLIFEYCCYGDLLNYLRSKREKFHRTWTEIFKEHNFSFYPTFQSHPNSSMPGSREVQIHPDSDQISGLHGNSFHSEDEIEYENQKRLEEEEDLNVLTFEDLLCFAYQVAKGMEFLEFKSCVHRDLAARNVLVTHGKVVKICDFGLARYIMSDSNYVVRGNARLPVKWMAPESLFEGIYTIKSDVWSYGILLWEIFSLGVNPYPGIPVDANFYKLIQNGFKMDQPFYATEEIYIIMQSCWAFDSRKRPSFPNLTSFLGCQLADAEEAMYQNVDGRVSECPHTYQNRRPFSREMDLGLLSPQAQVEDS
In short: as §1

| GI50 [1] [µM] | IC50 [2] [µM] | IC50 [3] [µM] | IC50 [4] [µM] | Compound |
| --- | --- | --- | --- | --- |
| 0.237 | – | – | – | COc1cnc2[nH]cc(-c3ccc4ncsc4c3)c2c1 [Compound 3] |
| 0.839 | – | – | – | COc1cnc2[nH]cc(-c3ccc4[nH]ccc4c3)c2c1 [Compound 1, reference compound] |
| 0.225 | – | – | – | COc1cnc2[nH]cc(-c3ccc4[nH]cnc4c3)c2c1 [Compound 2] |
| – | 0.0001 to 1 | 10 to 200 | 0.0001 to 1 | COc1cnc2[nH]cc(-c3ccc4ncn(CC5CC5)c4c3)c2c1 [P-062, 1-(cyclopropylmethyl)-6-(5-methoxy-1H-pyrrolo[2,3-b]pyridin-3-yl)benzimidazole] |
| – | 0.0001 to 1 | 10 to 200 | 0.0001 to 1 | O=C(C1CC1)N1CC=C(c2cnc3[nH]cc(-c4ccc5ncn(C6CCCC6)c5c4)c3n2)C1 [P-126, [3-[7-(3-cyclopentylbenzimidazol-5-yl)-5H-pyrrolo[2,3-b]pyrazin-2-yl]-2,5-dihydropyrrol-1-yl]-cyclopropyl-methanone] |
| – | 0.0001 to 1 | 1 to 10 | 0.0001 to 1 | CCCS(=O)(=O)Nc1cccc(-c2cnc3[nH]cc(-c4ccc5ncn(C)c5c4)c3c2)c1 [P-121, N-[3-[3-(3-methylbenzimidazol-5-yl)-1H-pyrrolo[2,3-b]pyridin-5-yl]phenyl]propane-1-sulfonamide] |
| – | 0.0001 to 1 | 1 to 10 | 0.0001 to 1 | Cn1cnc2ccc(-c3c[nH]c4ncc(-c5cnc(C6CC6)nc5)cc34)cc21 [P-039, 5-(2-cyclopropylpyrimidin-5-yl)-3-(3-methylbenzimidazol-5-yl)-1H-pyrrolo[2,3-b]pyridine] |

From patent US10160755B2 (Plexxikon Inc., priority 2015, dated 2018)
